{"source": "paper PMC8402032", "about": "“Unsymmetric Cisplatin-Based Pt(IV) Conjugates Containing a PARP-1 Inhibitor Pharmacophore Tested on Malignant Pleural Mesothelioma Cell Lines” (Molecules, 2021)", "key": {"[1]": {"biological_target": "T1, PARP-1 (Homo sapiens, UniProt P09874)", "T1 construct": "endogenous in cells; host or cells: MSTO-211H cells", "T1 sequence (P09874 whole entry)": "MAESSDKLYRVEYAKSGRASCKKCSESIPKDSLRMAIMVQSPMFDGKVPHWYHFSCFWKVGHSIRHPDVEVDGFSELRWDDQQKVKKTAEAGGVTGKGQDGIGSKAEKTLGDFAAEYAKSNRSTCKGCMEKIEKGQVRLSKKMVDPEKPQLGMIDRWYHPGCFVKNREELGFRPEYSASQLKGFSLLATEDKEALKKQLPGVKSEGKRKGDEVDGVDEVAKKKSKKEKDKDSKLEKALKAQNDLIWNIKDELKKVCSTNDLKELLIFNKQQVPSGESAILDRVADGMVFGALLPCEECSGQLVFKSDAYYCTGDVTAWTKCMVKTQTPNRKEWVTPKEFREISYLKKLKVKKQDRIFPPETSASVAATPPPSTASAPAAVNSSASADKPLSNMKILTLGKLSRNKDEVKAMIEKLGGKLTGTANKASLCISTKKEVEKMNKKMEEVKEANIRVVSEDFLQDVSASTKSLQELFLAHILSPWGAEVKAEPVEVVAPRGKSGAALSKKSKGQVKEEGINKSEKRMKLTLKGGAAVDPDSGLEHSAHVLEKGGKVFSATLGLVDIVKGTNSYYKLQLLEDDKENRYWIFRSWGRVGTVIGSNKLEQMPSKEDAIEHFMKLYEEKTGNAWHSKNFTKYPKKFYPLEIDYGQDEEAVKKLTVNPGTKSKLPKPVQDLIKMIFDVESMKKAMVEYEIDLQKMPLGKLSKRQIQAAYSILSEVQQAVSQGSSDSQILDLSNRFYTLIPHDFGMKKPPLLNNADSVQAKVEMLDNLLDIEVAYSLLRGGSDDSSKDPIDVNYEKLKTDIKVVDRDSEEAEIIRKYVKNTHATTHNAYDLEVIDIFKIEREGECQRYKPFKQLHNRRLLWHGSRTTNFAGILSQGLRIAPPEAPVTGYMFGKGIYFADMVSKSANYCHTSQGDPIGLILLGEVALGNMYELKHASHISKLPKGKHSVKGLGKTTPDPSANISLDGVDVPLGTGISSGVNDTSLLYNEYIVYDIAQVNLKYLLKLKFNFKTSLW", "experiment": "Western blot of poly(ADP-ribose) (PAR) and PARP-1 in MSTO-211H cells", "type": "cell-based", "details": "5 µM, 72 h", "procedure": "The effect of the most promising complex 6 on PARP-1 activity was further evaluated. MSTO-211H cells were treated with equimolar concentrations (5 µM) of 6, CDDP, and 3-ABA for 72 h. The two last compounds were used either alone or in combination in a 1:1 molar ratio. Western blot analysis evaluated the expression of poly(ADP-ribose) (PAR), which is the product of PARP-1 activity (Figure 4A).\nFor protein analysis, cells were extracted with 1% NP-40 lysis buffer (50 mM Tris-HCl pH 8.5 containing 1% NP-40, 150 mM NaCl, 10 mM EDTA, 10 mM NaF, 10 mM Na4P2O7, and 0.4 mM Na3VO4) with freshly added protease inhibitors (10 μg mL^−1 leupeptin, 4 μg mL^−1 pepstatin, and 0.1 U mL^−1 aprotinin). Lysates were centrifuged at 13,000× g for 10 min at 4 °C and the supernatants were collected and assayed for protein concentration with the Bradford assay method (Bio-Rad). Proteins were separated by SDS-PAGE (sodium dodecyl sulfate polyacrylamide gel electrophoresis) under reducing conditions. Following SDS-PAGE, proteins were transferred to nitrocellulose, reacted with specific antibodies, and then detected with peroxidase-conjugate secondary antibodies and chemioluminescent ECL reagent. Digital images were taken with the Bio-Rad ChemiDocTM Touch Imaging System and quantified using Bio-Rad Image Lab 5.2.1.\n(§1) Figure 4 (A) Representative Western blot showing poly(ADP-ribose) (PAR) and PARP-1 expression following 72 h MSTO-211H cell treatment with diluent (Ctrl) or 5 µM concentrations of cisplatin (CDDP), 6, CDDP + 3-ABA combination (1:1 ratio), and 3-ABA alone. HSC70 protein was used as loading control. (B) Immunocytochemistry was used to capture representative γH2AX focus images following 72 h MSTO-211H cell treatment with diluent (Ctrl) or 5 µM of complex 6."}, "[2]": {"test_system": "MM98 (sarcomatoid) malignant pleural mesothelioma cells", "experiment": "Cell viability assay (Trypan blue dye exclusion), MM98", "type": "cell-based, human", "details": "72 h treatment", "procedure": "(§2) Complexes 6–9 were tested on a panel of human MPM cell lines together with CDDP and SAA1, added for comparison (Table 1). The half-maximal inhibitory concentration, IC50, was determined on MSTO-211H (biphasic phenotype), REN (epithelioid), BR95 (epithelioid), and MM98 (sarcomatoid) cancer cell lines to identify the most promising Pt(IV) conjugate to be further investigated. To determine the number of viable cells, the use of the dye exclusion assay was preferred to the colorimetric assay because of the heterogeneity in the energy metabolism between the different MPM cell lines. This may justify minor differences with respect to the previously published IC50 for CDDP [40].\n(§3) Cells were seeded at a density of 10 × 10^4 cells per well in 6-well plates in RPMI medium supplemented with 10% fetal bovine serum (FBS), 100 μg mL^−1 streptomycin, and 10 μg mL^−1 penicillin and incubated overnight at 37 °C in a humidified environment containing 5% CO2 to allow adherence. Cisplatin was dissolved in 0.9% w/v aqueous NaCl brought to pH = 3 with HCl (final stock concentration 1 mM). The Pt(IV) complexes were dissolved in DMSO (final stock concentration 5 mM); the resulting solutions were microfiltered (0.45 μm) and their Pt content was checked by ICP-MS (see Section 3.5.2). These mother solutions were diluted in complete medium to the required concentration range.\n(§4) Following 72 h of treatment with the diluent of the compound (Ctrl) or different doses of the Pt compounds, cells were trypsinized and stained with Trypan blue. The number of cells considered viable (unstained cells) was counted in a Bürker haemocytometer within 5 min after staining."}, "[3]": {"experiment": "Reduction with ascorbic acid followed by RP-HPLC", "type": "physicochemical", "details": "ascorbic acid 10 mM, HEPES 50 mM pH 7.4, 37 °C, cosolvent DMF or MeOH, 24 h", "procedure": "To verify the activation by reduction mechanism, complexes 6–9 were challenged with the model bioreductant ascorbic acid (AA, 10 mM in water) in HEPES buffer (HEPES = 4-(2-hydroxyethyl)-1-piperazineethanesulfonic acid, 50 mM, pH = 7.4) at 37 °C. The reaction was monitored by following the RP-HPLC peaks over 24 h. The different solubility and retention times required different experimental conditions for the different compounds (cosolvent DMF or MeOH was necessary to maintain the Pt compounds in solution, >5% v/v). For these reasons, complete reduction for 8 and 9 was observed after 8 h, whereas for 6 and 7, the >85% peak area disappeared after 24 h only. […] Complexes 6–9, having very similar coordination skeletons, can be expected to behave in the same way.\nThe reduction of complexes with ascorbic acid was followed by monitoring of the reduction of the area of their chromatographic peaks via RP-HPLC over 24 h at 37 °C. The Pt compounds were dissolved in methanol or DMF (up to 20 mM) and diluted with different quantities of 50 mM 4-(2-hydroxyethyl)piperazine-1-ethanesulfonic acid (HEPES) buffer (pH = […]) containing 10 mM ascorbic acid. The mixtures were microfiltered to eliminate the precipitated complex. The chromatographic conditions were similar to those for the determination of lipophilicity (see Section 3.4), with different percentages of methanol depending on the complex."}, "[4]": {"test_system": "MSTO-211H cells", "experiment": "γH2AX foci immunofluorescence", "type": "cell-based, human", "details": "5 µM, 72 h", "procedure": "This is in tune with the activation by reduction mechanism (Scheme 1) that is able to generate CDDP in the cells.\nMSTO-211H cells were plated on slides and treated for 72 h with diluent or 5 μM complex 6. Slides were then fixed for 20 min with 4% paraformaldehyde (Sigma-Aldrich), rinsed with PBS, and then the cells were permeabilized for 5 min in 0.1% Triton X-100, followed by three 5 min PBS washes. Slides were treated thrice for 10 min in a blocking solution of 5% bovine serum albumin (BSA) (Invitrogen). Mouse anti-γH2AX antibody (Millipore) was added (1:100 in 1% BSA) and incubated for 1 h in a dark, humidified environment at room temperature. Slides were then exposed to a secondary goat anti-mouse antibody, FITC (1:100 in PBS) and incubated for 1 h in the dark, humidified environment at room temperature. Slides were rinsed thrice in PBS, mounted, and cell imaged with a Leica fluorescence microscope.\nas §1"}, "[5]": {"test_system": "BR95 (epithelioid) malignant pleural mesothelioma cells", "experiment": "Cell viability assay (Trypan blue dye exclusion), BR95", "type": "cell-based, human", "details": "72 h treatment", "procedure": "as §2, §3, §4"}}}
{"compound": "CC(=O)[O][Pt]([NH2])([NH2])([Cl])([Cl])[O]C(=O)CCNC(=O)c1cccc(NC(=O)OCC2c3ccccc3-c3ccccc32)c1", "note": "[Compound 6, (OC-6-44)-Acetato[3-(3-(fmoc-amino)-benzamido)-propanoato]-diammine-dichlorido-platinum(IV)]", "values": [{"measurement": "PARP-1 cleavage", "setting": "[1]", "value": "complex 6 alone did"}, {"measurement": "PARP-1 parylation (PAR expression)", "setting": "[1]", "value": "No self-parylation of PARP-1"}, {"measurement": "ratio IC50 (cisplatin)/IC50 (Pt(IV) complex), MM98", "setting": "[2]", "value": 1.8}, {"measurement": "IC50", "setting": "[2]; mean ± sd", "value": "980 ± 30", "unit": "nM"}, {"measurement": "peak area disappeared after 24 h", "setting": "[3]", "value": "> 85", "unit": "%"}, {"measurement": "DNA damage (γH2AX foci)", "setting": "[4]", "value": "increased number of γH2AX foci"}, {"measurement": "ratio IC50 (cisplatin)/IC50 (Pt(IV) complex), BR95", "setting": "[5]", "value": 2.6}, {"measurement": "IC50", "setting": "[5]; mean ± sd", "value": "830 ± 40", "unit": "nM"}]}
